From DBAASP come the findings set out here.

Among the test systems are Enterococcus faecalis VR; Enterococcus faecalis; Enterococcus faecium VR; Enterococcus faecium; Staphylococcus aureus MR.
Common to all, as to test: ≥ marks a high value that may be exact or a test limit, other limits are often not marked, values filed in µg/mL are converted to µM
Experiment [1] relates to Bacillus subtilis KCTC 3068.
Experiment [2] deals with Escherichia coli KCTC 1682.
For experiment [3], the system named is Pseudomonas aeruginosa KCTC 1637.
In experiment [4] the test system is Salmonella typhimurium KCTC 1926.
The test system of experiment [5] is Staphylococcus aureus KCTC 1621.
For experiment [6], the system named is Staphylococcus epidermidis KCTC 1917.
Experiment [7] concerns Escherichia coli ATCC 25922.
Experiment [8] deals with Escherichia coli CCARM 1229.
For experiment [9], the system named is Escherichia coli CCARM 1238.
In experiment [10] the test system is Listeria monocytogenes KCTC 3710.
The test system of experiment [11] is Pseudomonas aeruginosa 3592.
Experiment [12] deals with Pseudomonas aeruginosa 5018.
Experiment [13] concerns Pseudomonas aeruginosa ATCC 27853.
The test system of experiment [14] is Salmonella typhimurium CCARM 8009.
In experiment [15] the test system is Salmonella typhimurium CCARM 8013.
The subject of experiment [16] is Staphylococcus aureus ATCC 25923.
In experiment [17] the test system is Staphylococcus aureus CCARM 3114.
The subject of experiment [18] is Staphylococcus aureus CCARM 3709.
Experiment [19] concerns Bacillus cereus ATCC 11778.
Experiment [20] deals with Klebsiella pneumoniae ATCC 700603.
The subject of experiment [21] is Salmonella enterica subsp. enterica serovar Enteritidis ATCC 13076.
Experiment [22] deals with Serratia marcescens ATCC 21202.
Experiment [23] has as its system Staphylococcus aureus ATCC 29213.
In experiment [24] the test system is Streptococcus pyogenes ATCC 19615.
Experiment [25] has as its system Aspergillus niger ATCC 16404.
The subject of experiment [26] is Candida albicans ATCC 10231.
For experiment [27], the system named is Candida glabrata ATCC 15126.
In experiment [28] the test system is Enterococcus faecalis PCM 2673.
Experiment [29] concerns Escherichia coli ATCC 23506.
Experiment [30] deals with Pseudomonas aeruginosa ATCC 9027.
For experiment [31], the system named is Staphylococcus aureus ATCC 9144.
In experiment [32] the test system is Streptococcus pneumoniae ATCC 49619.
Experiment [33] deals with Bacillus subtilis ATCC 6633.
In experiment [34] the test system is Klebsiella pneumoniae H507.
Experiment [35] deals with Listeria monocytogenes ATCC 19115.
Experiment [36] concerns Salmonella enterica subsp. enterica serovar Enteritidis CVCC 3377.
For experiment [37], the system named is Streptococcus suis CVCC 606.

≈ marks a conversion by molar mass, not a printed value. Where only a bound is given, the exact number is not on record here.

The term MIC denotes the lowest concentration that inhibits growth of the organism. A low value points to a more susceptible organism. As to `CC[C@H](C)[C@H](NC(=O)[C@H](CC(C)C)NC(=O)[C@H](CS)NC(=O)[C@H](Cc1cnc[nH]1)NC(=O)[C@H](C)NC(=O)[C@H](C)N)C(=O)NCC(=O)N[C@@H](CCCN=C(N)N)C(=O)N[C@@H](CCCCN)C(N)=O` [AAHCLIGRK], the MIC in experiment [1] turned out to be 7.5 µM; in the experiment with Enterococcus faecalis VR, 30 µM; in the experiment on Enterococcus faecalis, 30 µM; in the experiment with Enterococcus faecium VR it was 7.5 µM; against Enterococcus faecium it was 30 µM; in experiment [2], 15 µM. Further, the MIC amounted to 15 µM in experiment [3]; 15 µM in experiment [4]; 15 µM in experiment [5]; 15 µM in the experiment on Staphylococcus aureus MR; 7.5 µM in experiment [6].
With `CC[C@H](C)[C@H](NC(=O)CN)C(=O)N[C@@H](Cc1cnc[nH]1)C(=O)N[C@@H](Cc1cnc[nH]1)C(=O)N[C@H](C(=O)N[C@@H](CC(C)C)C(=O)N[C@@H](CCCCN)C(=O)N[C@@H](Cc1ccc(O)cc1)C(=O)NCC(=O)N[C@@H](CCCCN)C(=O)N1CCC[C@H]1C(=O)N[C@@H](CO)C(=O)O)[C@@H](C)CC` [GIHHILKYGKPS], the minimal inhibitory concentration (MIC) was greater than 32 µM in experiment [7]; no less than 32 µM in [8]; no less than 32 µM in experiment [9]; no less than 32 µM in experiment [10]; no less than 32 µM in experiment [11]; no less than 32 µM in experiment [12]. Besides, the MIC in [13] is greater than 32 µM; in [14] it was no less than 32 µM; in experiment [15] it was no less than 32 µM; in experiment [4], no less than 32 µM; in experiment [16], greater than 32 µM; in [17] it was no less than 32 µM. In addition, in experiment [18], the MIC was no less than 32 µM.
In the case of `CC[C@H](C)[C@H](N)C(=O)N[C@H](C(=O)N1CCC[C@H]1C(=O)N[C@@H](CC(C)C)C(=O)N1CCC[C@H]1C(=O)N[C@@H](CC(C)C)C(=O)NCC(=O)N[C@@H](Cc1ccc(O)cc1)C(=O)N[C@@H](Cc1ccccc1)C(=O)N[C@@H](C)C(=O)N[C@@H](CCCCN)C(=O)N[C@@H](CCCCN)C(=O)N[C@@H](CCCCN)C(=O)N[C@@H](CCCCN)C(=O)N[C@@H](CCCCN)C(=O)N[C@@H](CCCCN)C(=O)N[C@@H](CC(=O)O)C(=O)N1CCC[C@H]1C(=O)N[C@H](C(=O)N1CCC[C@H]1C(=O)N[C@@H](CC(C)C)C(=O)N[C@@H](CC(=O)O)C(=O)N[C@@H](CCC(N)=O)C(=O)O)C(C)C)[C@@H](C)CC` [IIPLPLGYFAKKKKKKDPVPLDQ], the MIC in experiment [19] was no less than 37.9 µM; in experiment [7], greater than 37.9 µM; in experiment [20], greater than 37.9 µM; in experiment [13], greater than 37.9 µM; in experiment [21] it was no less than 37.9 µM; in [22], no less than 37.9 µM. The MIC was greater than 37.9 µM in experiment [23] and no less than 37.9 µM in [24].
Regarding `CC[C@H](C)[C@H](NC(=O)CNC(=O)[C@H](C)NC(=O)[C@@H](NC(=O)[C@H](CC(C)C)NC(=O)[C@H](CCCCN)NC(=O)[C@@H](NC(=O)[C@@H](N)CC(C)C)C(C)C)C(C)C)C(=O)N[C@@H](CCCCN)C(=O)N[C@@H](CCCCN)C(=O)N[C@@H](Cc1ccccc1)C(=O)N[C@@H](CC(C)C)C(=O)N[C@@H](CCCCN)C(=O)N[C@@H](Cc1c[nH]c2ccccc12)C(=O)N[C@@H](CCCCN)C(N)=O` [LVKLVAGIKKFLKWK], the MIC in experiment [25] is no less than 145 µM; in experiment [26], 145 µM (≈ 256 µg/mL); in experiment [27] it was no less than 145 µM; in experiment [28] it was no less than 36.1 µM; in [29], no less than 36.1 µM; in [7] it was 72.3 µM (≈ 128 µg/mL). The MIC in [20] is 1.13 µM (≈ 2 µg/mL); in experiment [30], 4.52 µM (≈ 8 µg/mL); in experiment [16], 72.3 µM (≈ 128 µg/mL); in [31], no less than 36.1 µM; in experiment [32], no less than 72.3 µM.
Take `CC[C@H](C)[C@H](NC(=O)[C@H](Cc1ccccc1)NC(=O)[C@H](CC(=O)O)NC(=O)[C@H](CCCCN)NC(=O)[C@H](CCCCN)NC(=O)[C@H](CCC(=O)O)NC(=O)[C@H](Cc1c[nH]c2ccccc12)NC(=O)[C@@H](NC(=O)[C@@H](NC(=O)[C@H](CCCCN)NC(=O)[C@@H](NC(=O)[C@H](CCCCN)NC(=O)[C@H](CCCN=C(N)N)NC(=O)[C@H](CCCN=C(N)N)NC(=O)[C@H](CCSC)NC(=O)[C@@H](NC(=O)[C@H](CCCN=C(N)N)NC(=O)[C@H](CCSC)NC(=O)[C@@H](N)CCSC)C(C)C)[C@@H](C)O)C(C)C)[C@@H](C)CC)C(=O)NCC(=O)N[C@@H](CC(C)C)C(=O)N[C@@H](Cc1ccc(O)cc1)C(=O)N[C@@H](CO)C(=O)N[C@H](C(=O)N[C@@H](CC(=O)O)C(=O)O)[C@@H](C)CC` [MMRVMRRKTKVIWEKKDFIGLYSID]: the MIC in experiment [33] worked out at 7.95 µM (≈ 25 µg/mL); in experiment [7], 0.986 µM (≈ 3.1 µg/mL); in experiment [34] it was 7.95 µM (≈ 25 µg/mL); in experiment [35], 3.97 µM (≈ 12.5 µg/mL); in [13], 3.97 µM (≈ 12.5 µg/mL); in experiment [36], 2 µM (≈ 6.3 µg/mL). In addition, the MIC in experiment [16] and in experiment [37] was 0.986 µM (≈ 3.1 µg/mL) in each case.
